Results: US8592172B2, “Bioluminescent assays using cyanobenzothiazole compounds” (Promega Corporation, priority 2010, dated 2013)

What was measured:
[1] = molecular target: T1, UGT 1A4 (Homo sapiens, UniProt P22310); experiment: Recombinant UGT panel, substrate utilization; type: biochemical; conditions: 2 hour incubation at 37° C., recombinant Supersomes
T1 construct: purchased BD Gentest; host or cells: insect cells (microsomes)
T1 sequence (P22310 29-534): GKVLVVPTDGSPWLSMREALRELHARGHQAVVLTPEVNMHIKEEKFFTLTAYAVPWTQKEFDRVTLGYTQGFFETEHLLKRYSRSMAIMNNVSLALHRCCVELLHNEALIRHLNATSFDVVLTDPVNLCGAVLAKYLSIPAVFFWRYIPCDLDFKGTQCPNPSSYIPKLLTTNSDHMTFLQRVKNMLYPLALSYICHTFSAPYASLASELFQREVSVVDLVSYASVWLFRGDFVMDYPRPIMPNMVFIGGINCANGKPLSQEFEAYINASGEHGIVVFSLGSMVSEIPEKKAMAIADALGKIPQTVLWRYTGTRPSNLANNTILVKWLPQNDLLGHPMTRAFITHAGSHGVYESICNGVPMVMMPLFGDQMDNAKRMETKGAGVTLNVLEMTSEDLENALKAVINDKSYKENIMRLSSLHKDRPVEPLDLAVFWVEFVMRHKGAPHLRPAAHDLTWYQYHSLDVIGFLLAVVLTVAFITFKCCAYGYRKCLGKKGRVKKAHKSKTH
Protocol: (§1) During this incubation, the cysteine reacts with the cyanobenzathiozole substrate to yield a D-luciferin derivative. […] Therefore, activity of the UGT enzyme can be measured by analyzing the difference (lower or no output) in relative light units (RLU) of a sample in which glucuronidation occurs compared to a sample that was run under the same conditions with no added UDPGA cofactor.
(§2) In this example, a series of 12 recombinant UGTs expressed in insect microsomes (Supersomes™, BD Gentest™), as well as the control microsomes not expressing the UGT enzyme, were incubated with compound 3138, compound 3478, or compound 3165 as substrates, with or without the UDPGA co-factor.
(§3) After addition of a luciferin detection reagent (LDR) containing D-cysteine, both the substrate and the product were converted to D-luciferins (compound 3478 is already a luciferin derivative before addition of the LDR).
(§4) Reactions were assembled in a white, 96-well plate. Each well contained 20 μL of reaction mixture comprised of 100 mM TES, pH 7.5, 16 mM MgCl2, 50 μg/mL alamethicin (Sigma), 60 μM compound 3138 or compound 3478, and 0.4 mg/mL of control or recombinant UGT membranes. The reactions were initiated by addition of 20 μL of water or 8 mM triammonium UDPGA (Sigma) to each well. The plate was mixed, sealed, and incubated in a 37° C. water bath for 2 hours. After the incubation, 40 μL P450-Glo LDR (Promega) with 20 mM D-cysteine-HCl.H2O (Sigma) was added to each well, the plate was mixed and allowed to incubate at room temperature for 20 minutes. After the incubation was completed, the plate was read on a Veritas™ luminometer (Turner BioSystems, Inc.; Sunnyvale, Calif.).
(§5) For each isozyme, the bioluminescence from the replicates containing UDPGA were subtracted from the average bioluminescence of the replicates without UDPGA. The average Δ RLU value obtained and the standard deviation of the replicates were then divided by the average bioluminescence for samples without UDPGA to obtain the % utilization for each isozyme. The % utilization obtained from the control microsomes was then subtracted from each isozyme to give the background corrected utilization data for those isozymes.

[2] = molecular target: T2, UGT 1A9 (Homo sapiens, UniProt O60656); experiment: Recombinant UGT panel, substrate utilization; type: biochemical; conditions: 2 hour incubation at 37° C., recombinant Supersomes, background corrected
T2 construct: purchased BD Gentest; host or cells: insect cells (microsomes)
T2 sequence (O60656 26-530): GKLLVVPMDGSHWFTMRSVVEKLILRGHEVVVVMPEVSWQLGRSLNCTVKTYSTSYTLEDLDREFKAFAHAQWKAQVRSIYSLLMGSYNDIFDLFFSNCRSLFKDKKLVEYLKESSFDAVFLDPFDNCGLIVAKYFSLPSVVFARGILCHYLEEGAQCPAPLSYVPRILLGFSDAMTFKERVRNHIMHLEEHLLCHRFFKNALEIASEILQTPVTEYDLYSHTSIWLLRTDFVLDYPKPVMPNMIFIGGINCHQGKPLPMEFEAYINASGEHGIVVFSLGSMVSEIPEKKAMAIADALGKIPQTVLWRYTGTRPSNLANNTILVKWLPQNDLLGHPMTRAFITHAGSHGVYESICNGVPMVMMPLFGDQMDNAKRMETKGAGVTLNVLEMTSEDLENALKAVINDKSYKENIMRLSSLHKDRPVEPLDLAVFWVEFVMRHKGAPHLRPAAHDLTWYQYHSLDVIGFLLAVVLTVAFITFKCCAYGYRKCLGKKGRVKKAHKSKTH
Protocol: as §1, §2, §3, §4, §5

[3] = system: human liver microsomes; experiment: Utilization of compound 3165 by human microsomes; type: biochemical; conditions: 50 μM compound 3165, 0.2 mg/mL microsomes, 2 hours at 37° C.
Protocol: (§6) The ability of endogenously expressed UGT isozymes to utilize compounds 3138 and 3165 as substrates was determined in a similar manner to the assays with recombinant microsomes (Example 1). […] Tissue microsomes were obtained from Xenotech LLC or BD Gentest. Addition of P450-Glo LDR plus cysteine and data analysis was performed in the same manner as for the recombinant Supersome panel screen (Example 1 above).

[4] = system: rat liver microsomes; experiment: Utilization of compound 3165 by rat liver microsomes; type: biochemical; conditions: 50 μM compound 3165, 0.2 mg/mL microsomes, 2 hours at 37° C.
Protocol: as §6

[5] = system: mouse liver microsomes; experiment: Utilization of compound 3165 by mouse liver microsomes; type: biochemical; conditions: 50 μM compound 3165, 0.2 mg/mL microsomes, 2 hours at 37° C.
Protocol: as §6

[6] = system: UGT isozymes; conditions: UGT isozymes currently reported in the literature; cited from earlier work
[7] = system: UGT activity in human liver microsomes (HLM); experiment: Inhibition of UGT activity in human liver microsomes, compound 3138 as substrate; type: biochemical; conditions: 50 μM compound 3138, 0.1 mg/mL HLM, 15 minutes at 37° C.; read-out: IC50 for HLM utilization of compound 3138
Protocol: To assess the ability of these compounds to inhibit UGT activity in HLM, reactions were set up as follows. […] Sulfinpyrazone, quinidine, and androsterone were used at a final concentration of 0.5 mM. 1-Naphthol, scopoletin, umbelliferne, and 7-hydroxy-4-trifluoromethyl coumarin were used at a final concentration of 1 mM. […] Valproate was used at a final concentration of 10 mM. All reactions were compared to their corresponding vehicle control sample containing either water, DMSO, or ethanol.

[8] = system: UGT isozymes in human hepatocytes; conditions: diclofenac, 15-20 minutes at 37° C.
[9] = molecular target: T3, UGT 1A1 (Homo sapiens, UniProt P22309); experiment: Inhibition of recombinant UGT 1A1 Supersomes, compound 3138 as substrate; type: biochemical; conditions: 20 μM compound 3138, 0.1 mg/mL Supersomes, 90 minutes at 37° C.
T3 construct: purchased BD Gentest; host or cells: insect cells (microsomes)
T3 sequence (P22309 26-533): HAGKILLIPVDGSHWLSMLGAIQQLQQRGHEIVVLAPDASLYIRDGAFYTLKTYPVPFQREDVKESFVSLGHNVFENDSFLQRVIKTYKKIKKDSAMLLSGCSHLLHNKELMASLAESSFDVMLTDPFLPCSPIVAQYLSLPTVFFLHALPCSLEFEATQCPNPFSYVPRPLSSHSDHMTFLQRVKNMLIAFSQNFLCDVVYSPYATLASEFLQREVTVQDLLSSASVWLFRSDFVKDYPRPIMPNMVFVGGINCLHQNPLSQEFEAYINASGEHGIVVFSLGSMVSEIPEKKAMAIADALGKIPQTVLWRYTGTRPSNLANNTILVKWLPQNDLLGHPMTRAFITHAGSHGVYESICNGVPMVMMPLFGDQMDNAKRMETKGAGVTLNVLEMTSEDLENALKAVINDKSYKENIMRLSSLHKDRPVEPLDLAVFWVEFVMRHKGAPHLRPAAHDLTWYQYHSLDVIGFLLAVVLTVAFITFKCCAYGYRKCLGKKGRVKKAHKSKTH
Protocol: Following the UGT enzyme reaction, an equal volume of P450-Glo Luciferin Detection Reagent (LDR) (Promega) containing 15-30 mM D-cysteine-HCl.H2O (Sigma) was added and the plate was mixed and incubated at room temperature, typically for 20-30 minutes. P450-Glo Luciferin Detection Reagent contains a luciferase reaction mixture that includes a recombinant firefly luciferase, ATP and Mg^2+.
After 2 hours at 37° C., 10 μL of 50 mM D-cysteine-HCl.H2O diluted in 200 mM HEPES, pH 8.0 was added to each 40 μL UGT reaction. After 10 minute incubations, 50 μL P450-Glo LDR (Promega) was added to each well, and bioluminescence was measured.
After 90 minutes at 37° C., 40 μL of P450-Glo LDR plus 20 mM D-cysteine was added to each 40 μL reaction and mixed. After 20 minutes at room temperature, bioluminescence was measured on a luminometer.

[10] = system: CYP1A2; experiment: Non-lytic assay with rat hepatocytes, compound 3019; type: cell-based; conditions: 10 nM TCDD 48 hours, 3 μM compound 3019

With N#Cc1nc2ccc(NCc3cccc(N)c3)cc2s1 [Compound 3165] the “utilization of substrate by UGT 1A4” value [1] was “only utilized by UGT 1A4”, the “% utilization of substrate by UGT 1A9” value [2] was “to a lesser extent” and the “utilization (activity) with human liver microsomes versus human renal or intestinal microsomes” value [3] was “Activity was much higher for human liver microsomes”. For the same molecule, the “utilization (activity) with rat liver microsomes” value [4] was “Activity was also seen” and the “utilization (activity) with mouse liver microsomes” value [5] was “Activity was also seen”.
In the case of O=C(O)Cc1ccccc1Nc1c(Cl)cccc1Cl [Diclofenac], the “Isozymes Modulated” value [6] is given as “Inhibits most isozymes”, the IC50 [7] is given as 60 µM and the “inhibition of compound 3138 conversion in hepatocytes” value [8] is given as “inhibited”. The IC50 [9] was 232 µM.
For Clc1cc2c(cc1Cl)Oc1cc(Cl)c(Cl)cc1O2 [TCDD, 2,3,7,8-tetrachlorodibenzo-p-dioxin], the “change of basal signal (CYP1A2 induction)” value [10] was “significantly increased”.
